# In BindingDB's records for doi:10.1016/j.bmcl.2006.01.057 (Glaxosmithkline, 2006):
# Target: Glycogen synthase kinase-3 beta (Homo sapiens, UniProt P49841)
# Experiment: Kinase Inhibition SPA Assay
# Conditions: pH 7.2; 22 °C
# Description: The biochemical activity of compounds was determined by incubation with specific enzyme and substrate in the presence 2.5 uM ATP/ [gamma-33P] ATP. After incubation, the reaction was stopped and the phosphorylated substrate was separated from nonincorporated radioactive ATP using Streptavidin-coated SPA beads (Amersham Pharmacia), counted using TopCount (Packard) to measure substrate-incorporated phosphate.
# Chain of Glycogen synthase kinase-3 beta (P49841 whole entry): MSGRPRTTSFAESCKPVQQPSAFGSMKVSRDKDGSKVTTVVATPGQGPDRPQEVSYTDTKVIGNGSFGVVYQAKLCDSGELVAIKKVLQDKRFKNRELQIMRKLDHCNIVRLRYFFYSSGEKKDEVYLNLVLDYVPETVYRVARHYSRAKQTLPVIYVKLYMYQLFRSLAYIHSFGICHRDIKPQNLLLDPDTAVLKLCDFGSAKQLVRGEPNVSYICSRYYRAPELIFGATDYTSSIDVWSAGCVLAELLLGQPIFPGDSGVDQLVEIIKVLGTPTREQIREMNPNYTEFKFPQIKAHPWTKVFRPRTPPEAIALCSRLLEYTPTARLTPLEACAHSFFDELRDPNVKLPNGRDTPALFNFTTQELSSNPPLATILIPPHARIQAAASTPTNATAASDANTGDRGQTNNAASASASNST
row,Structure (SMILES),IC50
1,"COc1cccc(-n2ncc3c(N=NCc4ccncc4)ncnc32)c1 [4-[(1E)-{2-[1-(3-methoxyphenyl)-1H-pyrazolo[3,4-d]pyrimidin-4-yl]hydrazin-1-ylidene}methyl]pyridine]",6.3 nM
2,"COc1cccc(-c2n[nH]c3c(N=NCc4ccncc4)ncnc23)c1 [4-[(1E)-{2-[3-(3-methoxyphenyl)-1H-pyrazolo[4,3-d]pyrimidin-7-yl]hydrazin-1-ylidene}methyl]pyridine]",5.01 nM
3,"COc1cccc(-c2cn(C)c3c(N=NCc4ccncc4)ncnc23)c1 [4-[(1E)-{2-[7-(3-methoxyphenyl)-5-methyl-5H-pyrrolo[3,2-d]pyrimidin-4-yl]hydrazin-1-ylidene}methyl]pyridine]",501 nM
4,"COc1cccc(-c2c[nH]c3c(N=NCc4ccncc4)ncnc23)c1 [4-[(1E)-{2-[7-(3-methoxyphenyl)-5H-pyrrolo[3,2-d]pyrimidin-4-yl]hydrazin-1-ylidene}methyl]pyridine]",5.01 nM
5,"COc1cccc(-n2ccc3c(N=NCc4ccncc4)ncnc32)c1 [4-[(1E)-{2-[7-(3-methoxyphenyl)-7H-pyrrolo[2,3-d]pyrimidin-4-yl]hydrazin-1-ylidene}methyl]pyridine]",31.6 nM
6,COc1cccc(-n2cnc3c(N=NCc4ccncc4)ncnc32)c1 [9-(3-methoxyphenyl)-6-[(2E)-2-(pyridin-4-ylmethylidene)hydrazin-1-yl]-9H-purine],631 nM
